≈ marks a conversion by molar mass, not a printed value. Where “and” joins values, the source holds several entries; their conditions need not be identical. Equal entries are not always repeated.
Legend:
B. cinerea [1] = test: Spray treatment of tomato plants with hexanoic acid potassium salt, B. cinerea inoculation; assay type: in vivo, Botrytis cinerea; conditions: for % inhibition of infection versus control: 72 h
Procedure: Hexanoic acid potassium salt was provided by preparing a mole-to-mole solution of hexanoic acid with K2CO3. A concentrated solution was prepared, adjusted to pH 6, and then dilutions were performed in order to provide in-use concentrations, namely, 20 mM, 10 mM, 6 mM and 3 mM.
The plants were treated with the formed salt by spray application and then left to dry for 30 minutes. Afterwards, treated leaves, which were previously incubated for 2 h in Gamborg medium supplemented with sucrose and phosphate, were inoculated with 5 μl of a suspension containing 10^6 spores/ml of B. cinerea, and then stored in a high-humidity chamber at 25° C. for 72 h.
The infection diameter was measured and, finally, the germination percentage was determined.

B. cinerea spores = test: Direct antimicrobial effect in vitro: spore germination, mycelium growth, MIC/MFC in PDB; assay type: cell-based, Botrytis cinerea
Procedure: Test mixture contained 4×10^6 conidia/ml PDB (potatodextrose broth, Difco, Detroit, Mich., USA). Treatments (hexanoic acid and heptanoic acid) were added to PDB from stock solutions in order to obtain the different concentrations to be used (0.06 to 30 mM). Medium pH was adjusted to 3.6-5.5 using HCl or NaOH. One ml of each mixture was dispensed into sterile 24-well microplates and then incubated at 20° C. under gentle stirring. Percentage of germinated spores was calculated after 20 h incubation by staining with 0.1% lacto-fucshin (1:1) followed by microscopic observation of 100 spores. Spores were considered to be germinated when the length of germ tube was equal to or greater than spore. For assessment of efficacy in long-term treatments, test culture was left for a 7-day incubation period under previously described conditions, and mycelium development was assessed as follows: 3 ml of each culture were vacuum-filtered through pre-weighed nitrocellulose filters (Millipore, ref. HAWP02500). The filters were dried at 85° C. until weight was constant at room temperature.
For measurement of treatment effects on mycelium growth, 9×10^6 spores were inoculated to a final volume of 150 ml PDB. After 20 h incubation, spores were examined for germination by microscopic analysis, then treatments were added, and pH was adjusted to 5.5. Cultures were incubated at 20° C. under gentle stirring. After 96 h, mycelium growth was measured by determining dry weight, as described herein. […] After MIC determination, minimum fungicidal concentration (MFC) was measured as follows. After 20 h incubation, an aliquot of the cultures, in which no growth had been detected, was taken, then washed three times and added to a fresh medium without added treatment. After 20 h incubation, under previously described conditions, the germination percentage was estimated. MFC is the minimum concentration of test compound at which microorganisms are not recovered.

B. cinerea [2] = test: Hexanoic acid root application in hydroponic cultivation, protection of tomato plants against B. cinerea; assay type: in vivo, Botrytis cinerea; conditions: control: water
Procedure: (§1) Experiments were performed with 4-week-old tomato plants (Cv. Ailsa Craig) in hydroponic cultivation. Before initiation of treatment, the plants were maintained in hydroponic cultivation for 1 week for habituation under such cultivation conditions. Treatment comprised the addition of hexanoic acid to a nutrient solution (Hoagland solution) at the following concentrations: 0.06 mM, 0.6 mM, 3 mM, 6 mM, 16 mM and 20 mM, pH was adjusted to 6. After 48 hours of treatment, the leaflets of the third and fourth true leaves were inoculated with 5 μl of a suspension containing 10^6 conidia B. cinerea/ml. Spores had previously been incubated in Gamborg medium (Duchefa Biochemie, The Netherlands) supplemented with sucrose and phosphate, over a period of 2 h. Spores were inoculated in this medium. For each treatment, 10 plants were used, which were kept under humidity- and temperature-controlled conditions (80% RH, 21° C.). Sampling was performed at 48, 72, 96 and 120 hours after inoculation.

B. cinerea [3] = test: Hexanoic acid root application in soil cultivation, protection of tomato plants against B. cinerea; assay type: in vivo, Botrytis cinerea; conditions: control: water
Procedure: as §1
Plants were cultivated in soil and the solutions of hexanoic acid, at different concentrations, were prepared and applied in the same manner as that described above. Control was water.

B. cinerea [4] = test: Hexanoic acid root application in soil cultivation, protection of Arabidopsis plants against B. cinerea; assay type: in vivo, Botrytis cinerea
Procedure: (§2) Experiments were performed with 5-week-old Arabidopsis plants cultivated in soil. Two weeks after germination, the plants were transplanted into single pots and kept at a temperature of 20° C. day/18° C. night and 8.5 h light cycle for 24 h and 60% relative humidity (RH).
(§3) The plants were treated with different concentrations of hexanoic acid (0.6 mM, 0.8 mM and 1 mM) and inoculated with 6 μl of 2.5×10^4 spores/mL Botrytis cinerea and 2×10^6 spores/mL Alternaria brassicicola.
(§4) Sampling was performed at 48, 72, 96 and 120 hours after inoculation.

A. Brassicicola = test: Hexanoic acid root application in soil cultivation, protection of Arabidopsis plants against A. Brassicicola; assay type: in vivo, Alternaria brassicicola; conditions: 0.8 mM
Procedure: as §2, §3, §4

B. cinerea [5] = test: Spray application of hexanoic acid on tomato plants against B. cinerea; assay type: in vivo, Botrytis cinerea; conditions: for % inhibition of invention versus control: spray application, tomato plants
Botrytis cinerea = test: Post-harvest treatment: combined inoculation of hexanoic acid and Botrytis cinerea spores into tomato fruits; assay type: in vivo; conditions: combined inoculation with spores, preliminary studies
Procedure: Preliminary studies were also performed on the application of hexanoic acid for post-harvest treatment.

Peronospora parasitica = test: Induced resistance in Arabidopsis thaliana against Peronospora parasitica; assay type: in vivo
Pseudomonas syringe = test: Induced resistance in Arabidopsis thaliana against Pseudomonas syringe; assay type: in vivo

CCCCCC(=O)[O-].[K+] [Hexanoic acid potassium salt]
% inhibition of infection versus control (B. cinerea [1]; 6 mM): 52.1%
% inhibition of infection versus control (B. cinerea [1]; 10 mM): 61.3%
% inhibition of infection versus control (B. cinerea [1]; 20 mM, listed as potassium salt, potassium salt): 80%
% inhibition of infection versus control (B. cinerea [1]; 20 mM, potassium salt): 80.3%
% inhibition of infection versus control (B. cinerea [1]; 3M): 49.8%
inhibition at 3000 µM (B. cinerea [1]; Botrytis cinerea, 3 mM, read-out: inhibition of fungal infection): ~50%

CCCCCCC(=O)O [heptanoic acid]
concentration from which spore germination is significantly decreased / inhibited (B. cinerea spores; B. cinerea spores in vitro): ≥ 6 mM
effect on spore germination compared with hexanoic acid (B. cinerea spores; B. cinerea spores in vitro): the same at the same concentration range
germ tube development (B. cinerea spores; B. cinerea spores in vitro): entirely prevents germ tube development

CCCCCC(=O)O [hexanoic acid]
% inhibition of infection versus control (B. cinerea [2]; 0.06 mM): 35.57%
% inhibition of infection versus control (B. cinerea [2]; 0.6 mM): 48.90%
% inhibition of infection versus control (B. cinerea [2]; 3 mM): 64.06%
% inhibition of infection versus control (B. cinerea [2]; 6 mM): 61.98%
% inhibition of infection versus control (B. cinerea [2]; 16 mM): 63.52%
% inhibition of infection versus control (B. cinerea [2]; 20 mM): 53.60%
% inhibition of infection versus control (B. cinerea [3]; 0.06 mM): 60.15%
% inhibition of infection versus control (B. cinerea [3]; 0.6 mM): 49.77%
% inhibition of infection versus control (B. cinerea [4]; 0.6 mM): 10%
% inhibition of infection versus control (B. cinerea [4]; 0.8 mM): 28%
% inhibition of infection versus control (B. cinerea [4]; 1 mM): 38%
% inhibition of infection versus control (A. Brassicicola; time after inoculation 48): 54.5%
% inhibition of infection versus control (A. Brassicicola; time after inoculation 72): 40.5%
% inhibition of infection versus control (A. Brassicicola; time after inoculation 96): 6.3%
% inhibition of invention versus control (B. cinerea [5]; 3 mM): 7.63%
% inhibition of invention versus control (B. cinerea [5]; 16 mM): 67% and 66.85%
% inhibition of invention versus control (B. cinerea [5]; 20 mM): 81% and 81.47%
curative effect in plants already inoculated (B. cinerea [5]; plants already inoculated with B. cinerea, preliminary results): restrains the progress of necrosis
concentration from which spore germination is significantly decreased / inhibited (B. cinerea spores; B. cinerea spores in vitro): ≥ 3 mM
concentration that entirely inhibits germination (B. cinerea spores; B. cinerea spores in vitro): 16 mM
MFC (B. cinerea spores; Botrytis cinerea, 20 h, read-out: minimum fungicidal concentration (MFC)): 16 mM (≈ 1860 µg/mL)
reversibility of the inhibitor effect after spore washing (B. cinerea spores; spores treated at MFC, treatment removed by washing): irreversible fungicidal effect
mycelium development in already germinated spores (B. cinerea spores; treatment added after germination): inhibits mycelium development
infection rate of treated fruits (Botrytis cinerea): significant decrease in the infection rate
induced resistance (Peronospora parasitica): induced resistance
induced resistance (Pseudomonas syringe): induced resistance

— patent US20100080860A1, “Application of short-chain monocarboxylic acids for crop protection” (UNIVERSITAT JAUME I, priority 2005, published 2010)
